Changes are numbered by the printed parent chain. Several values for one entry are separate records, joined by “and”; a condition that tells them apart may be missing. Identical values can stand only once. Each block holds one molecule with its values, some of them ahead of it.
How the values were obtained:
SGLT2 = target: T1, SGLT2 (Homo sapiens, UniProt P31639); test: 1-NBDG uptake in HEK293 cells stably expressing SGLT2; assay type: cell-based; conditions: HEK293, compound at 10 μM; triplicate; read-out: SGLT2 inhibitory rates
T1 construct: Human full-length SGLT2 cDNA (NM_003041.3) was synthesized; expressed in transfected cells; host or cells: HEK293, retroviral transduction with pMSCVpuro-SGLT2, puromycin selected
T1 sequence (P31639 1-672): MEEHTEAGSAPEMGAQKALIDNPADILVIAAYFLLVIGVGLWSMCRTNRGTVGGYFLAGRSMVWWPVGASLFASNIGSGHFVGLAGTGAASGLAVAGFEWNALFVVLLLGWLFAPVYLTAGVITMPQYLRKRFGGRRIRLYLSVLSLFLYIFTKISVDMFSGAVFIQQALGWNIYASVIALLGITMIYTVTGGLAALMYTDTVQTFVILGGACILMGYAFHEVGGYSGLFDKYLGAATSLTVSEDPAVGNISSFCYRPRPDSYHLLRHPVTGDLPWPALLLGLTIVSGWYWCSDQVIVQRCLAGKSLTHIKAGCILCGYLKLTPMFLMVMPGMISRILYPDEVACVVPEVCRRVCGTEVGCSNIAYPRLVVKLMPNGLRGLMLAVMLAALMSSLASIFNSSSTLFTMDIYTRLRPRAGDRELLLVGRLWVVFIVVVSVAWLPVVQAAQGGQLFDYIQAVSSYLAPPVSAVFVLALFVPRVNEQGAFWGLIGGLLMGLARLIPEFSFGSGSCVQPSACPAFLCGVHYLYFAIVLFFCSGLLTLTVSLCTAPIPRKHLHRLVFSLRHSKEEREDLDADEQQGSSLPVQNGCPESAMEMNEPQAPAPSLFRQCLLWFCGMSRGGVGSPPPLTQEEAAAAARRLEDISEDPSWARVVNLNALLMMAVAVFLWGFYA

AbCGT = AbCGT (Aloe vera, UniProt A0A7G9P699); test: Glycosyltransferase activity assay, purified AbCGT (wild type) with aglycon acceptors and UDP-Glc; assay type: biochemical, Aloe barbadensis; conditions: for conversion rates, O,N,S-glycosylation / conversion rates, di-C-glycosylation / conversion rates, mono-C-glycosylation: aglycon acceptor with UDP-Glc, pH 7.4, 30 °C, up to 12 h, Reaction-1 to -3
AbCGT, sequence (A0A7G9P699 entry or part of it): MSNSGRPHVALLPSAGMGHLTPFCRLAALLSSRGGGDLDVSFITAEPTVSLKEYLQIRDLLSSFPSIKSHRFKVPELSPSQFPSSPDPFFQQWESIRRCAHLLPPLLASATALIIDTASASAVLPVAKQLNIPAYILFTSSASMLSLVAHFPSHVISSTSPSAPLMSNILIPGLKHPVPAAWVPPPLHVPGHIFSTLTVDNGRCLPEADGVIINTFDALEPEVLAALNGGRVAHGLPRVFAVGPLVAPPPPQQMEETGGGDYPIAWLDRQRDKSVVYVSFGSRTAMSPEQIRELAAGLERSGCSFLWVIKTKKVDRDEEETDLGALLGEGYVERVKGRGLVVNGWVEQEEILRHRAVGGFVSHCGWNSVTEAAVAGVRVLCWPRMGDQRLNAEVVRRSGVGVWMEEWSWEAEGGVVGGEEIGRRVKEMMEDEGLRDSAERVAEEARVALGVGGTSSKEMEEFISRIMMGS
Procedure: Due to the instability of some acceptors in the buffer of pH 11.0, the reactions were performed under the physiological conditions (pH 7.4, 30 °C) to compare the catalytic activities of AbGT27 with different substrates under the same conditions. The reactions were performed at 30 °C for up to 12 h and terminated by the addition of 200 μL of ice-cold methanol. Subsequently, samples were centrifuged at 15,000 × g for 30 min to collect the supernatant, and aliquots were analyzed by HPLC-UV/ESIMS. […] The gradient programs were used for the analysis of the reactions (Supplementary Table 6). The conversion rates of the enzyme reactions were calculated from peak areas of glycosylated products and substrates as analyzed by HPLC. To facilitate inferential statistical analysis, three parallel assays were routinely performed; the means ± SD from triplicate analyses are reported here.

AbCGT V183D = target: T2, AbCGT V183D (Aloe vera, UniProt A0A7G9P699, V183D); test: Glycosyltransferase activity of AbCGT variant V183D; assay type: biochemical, Aloe barbadensis
T2 sequence (A0A7G9P699 1-470 V183D): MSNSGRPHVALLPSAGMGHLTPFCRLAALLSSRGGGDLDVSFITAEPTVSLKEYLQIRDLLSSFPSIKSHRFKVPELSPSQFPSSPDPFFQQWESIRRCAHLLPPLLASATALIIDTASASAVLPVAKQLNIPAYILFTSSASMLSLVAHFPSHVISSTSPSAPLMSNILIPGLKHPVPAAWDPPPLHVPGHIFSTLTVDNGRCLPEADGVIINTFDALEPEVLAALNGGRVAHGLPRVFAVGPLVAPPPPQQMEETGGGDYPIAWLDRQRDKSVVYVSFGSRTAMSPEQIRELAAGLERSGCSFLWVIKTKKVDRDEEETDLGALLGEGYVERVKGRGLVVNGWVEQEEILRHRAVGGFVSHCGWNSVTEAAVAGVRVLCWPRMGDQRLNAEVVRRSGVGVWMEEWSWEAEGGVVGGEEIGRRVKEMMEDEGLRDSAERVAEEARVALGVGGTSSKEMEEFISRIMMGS
Procedure: (§1) The reaction mixture contained 0.5 mM sugar donors (1.0 mM for di-glycosylation), 0.25 mM aglycons, 50 mM Tris-HCl (pH 7.4), and 50‒100 μg of purified AbCGT in a final volume of 100 μL. Due to the instability of some acceptors in the buffer of pH 11.0, the reactions were performed under the physiological conditions (pH 7.4, 30 °C) to compare the catalytic activities of AbGT27 with different substrates under the same conditions. The reactions were performed at 30 °C for up to 12 h and terminated by the addition of 200 μL of ice-cold methanol. Subsequently, samples were centrifuged at 15,000 × g for 30 min to collect the supernatant, and aliquots were analyzed by HPLC-UV/ESIMS. HPLC analysis was performed on a Shiseido CAPCELL PAK C18 MG III column (250 mm × 4.6 mm I.D., 5 μm, Shiseido Co., Ltd., Japan) at a flow rate of 1 mL min^‒1. The mobile phase was a gradient elution of solvents A (0.1% formic acid aqueous solution) and B (methanol). The gradient programs were used for the analysis of the reactions (Supplementary Table 6). The conversion rates of the enzyme reactions were calculated from peak areas of glycosylated products and substrates as analyzed by HPLC. To facilitate inferential statistical analysis, three parallel assays were routinely performed; the means ± SD from triplicate analyses are reported here.
(§2) Site-saturation mutagenesis of AbCGT at residue 183 was performed by PCR using pET28a-AbCGT as a template and the corresponding degenerate primers, which are listed in Supplementary Table 5. PCR products were purified and transformed into Trans1-T1 (DE3) E. coli. The sequences of pET28a-AbCGT mutants were confirmed by sequencing, and transformed into Transetta (DE3) E. coli for heterologous expression following protein purification.

AbCGT V183E = target: T3, AbCGT V183E (Aloe vera, UniProt A0A7G9P699, V183E); test: Glycosyltransferase activity of AbCGT variant V183E; assay type: biochemical, Aloe barbadensis
T3 sequence (A0A7G9P699 1-470 V183E): T2 sequence (A0A7G9P699 1-470 V183D) with D183E
Procedure: as §1, §2

Structure (SMILES): CC(=O)c1ccc(O)cc1O [Compound 6, 2,4-dihydroxyacetophenone]
- conversion rates, O,N,S-glycosylation (AbCGT): 43.8% and 46.5% and 44.5%
- conversion rates, di-C-glycosylation (AbCGT): 0%
- conversion rates, mono-C-glycosylation (AbCGT): 27.1% and 26.5% and 27.4%
- WT/yield of C-glycoside(%) (AbCGT; reaction-1): 29.2%
- WT/yield of O-glycoside(%) (AbCGT; reaction-1): 43.5%
- WT/yield of C-glycoside(%) (AbCGT; reaction-2): 25.9%
- WT/yield of O-glycoside(%) (AbCGT; reaction-2): 45.7%
- WT/yield of C-glycoside(%) (AbCGT; reaction-3): 26%
- WT/yield of O-glycoside(%) (AbCGT; reaction-3): 47%
- V183D/yield of C-glycoside(%) (AbCGT V183D; reaction-1): 13.9%
- V183D/yield of O-glycoside(%) (AbCGT V183D; reaction-1): 1%
- V183D/yield of C-glycoside(%) (AbCGT V183D; reaction-2): 12.3%
- V183D/yield of O-glycoside(%) (AbCGT V183D; reaction-2): 1.5%
- V183D/yield of C-glycoside(%) (AbCGT V183D; reaction-3): 13.1%
- V183D/yield of O-glycoside(%) (AbCGT V183D; reaction-3): 1.4%
- V183E/yield of O-glycoside(%) (AbCGT V183E; reaction-1): 0%
- V183E/yield of C-glycoside(%) (AbCGT V183E; reaction-2): 5.5%
- V183E/yield of O-glycoside(%) (AbCGT V183E; reaction-2): 0%
- V183E/yield of C-glycoside(%) (AbCGT V183E; reaction-3): 6.8%
- V183E/yield of O-glycoside(%) (AbCGT V183E; reaction-3): 0%

Structure (SMILES): CC(=O)c1c(O)cccc1O [Compound 5]
- conversion rates, O,N,S-glycosylation (AbCGT): 72% and 70.6% and 73%
- conversion rates, di-C-glycosylation (AbCGT): 0%
- conversion rates, mono-C-glycosylation (AbCGT): 16.5% and 14.3% and 13.1%
- WT/yield of C-glycoside(%) (AbCGT; reaction-1): 15.1%
- WT/yield of O-glycoside(%) (AbCGT; reaction-1): 73.6%
- WT/yield of C-glycoside(%) (AbCGT; reaction-2): 14.2%
- WT/yield of O-glycoside(%) (AbCGT; reaction-2): 71%
- WT/yield of C-glycoside(%) (AbCGT; reaction-3): 14.7%
- WT/yield of O-glycoside(%) (AbCGT; reaction-3): 72.9%
- V183D/yield of C-glycoside(%) (AbCGT V183D; reaction-1): 8.2%
- V183D/yield of O-glycoside(%) (AbCGT V183D; reaction-1): 0%
- V183D/yield of C-glycoside(%) (AbCGT V183D; reaction-2): 7.5%
- V183D/yield of O-glycoside(%) (AbCGT V183D; reaction-2): 0%
- V183D/yield of C-glycoside(%) (AbCGT V183D; reaction-3): 7.9%
- V183D/yield of O-glycoside(%) (AbCGT V183D; reaction-3): 0%
- V183E/yield of C-glycoside(%) (AbCGT V183E; reaction-1): 0%
- V183E/yield of O-glycoside(%) (AbCGT V183E; reaction-1): 0%
- V183E/yield of C-glycoside(%) (AbCGT V183E; reaction-2): 0%
- V183E/yield of O-glycoside(%) (AbCGT V183E; reaction-2): 0%
- V183E/yield of C-glycoside(%) (AbCGT V183E; reaction-3): 0%
- V183E/yield of O-glycoside(%) (AbCGT V183E; reaction-3): 0%

Structure (SMILES): O=C(CCc1ccc(O)cc1)c1c(O)cc(O)c(C2OCC(O)C(O)C2O)c1O [Compound 17c, phloretin-3′-C-β-D-xyloside]
- inhibition at 10 µM (SGLT2): 1.7%

Structure (SMILES): COc1ccc(Cc2c(O)cc(O)cc2O)cc1OC [Compound 20]
- inhibition at 10 µM (SGLT2): 0.2%
- conversion rates, O,N,S-glycosylation (AbCGT): 0%
- conversion rates, di-C-glycosylation (AbCGT): 0%
- conversion rates, mono-C-glycosylation (AbCGT): 100%

Now from value to molecule:

- inhibition at 10 µM (SGLT2): 23.6%
Structure (SMILES): OCC1OC(c2c(O)cc(O)c(CCc3ccccc3)c2O)C(O)C(O)C1O (centres unmarked) [Compound 39a]

- inhibition at 10 µM (SGLT2): 22.7%
Structure (SMILES): COc1ccc(CCc2ccc(O)c([C@@H]3O[C@H](CO)[C@@H](O)[C@H](O)[C@H]3O)c2O)cc1 [Compound 21a]

- inhibition at 10 µM (SGLT2): 52.2%
Structure (SMILES): O=C(CCc1ccc(O)cc1)c1c(O)cc(O)c([C@@H]2O[C@H](CO)[C@@H](O)[C@H](O)[C@H]2O)c1O [Compound 17a]

- inhibition at 10 µM (SGLT2): 18.6%
Structure (SMILES): OCC1OC(c2c(O)cc(O)c(CCc3ccc(O)cc3)c2O)C(O)C(O)C1O (centres unmarked) [Compound 51a]

- inhibition at 10 µM (SGLT2): 24.3%
Structure (SMILES): OCC1OC(c2c(O)cc(O)c(CCc3ccc(F)cc3)c2O)C(O)C(O)C1O (centres unmarked) [Compound 53a]

- inhibition at 10 µM (SGLT2): 36.7%
Structure (SMILES): OCC1OC(c2c(O)cc(O)c(CCc3ccc4c(c3)CCO4)c2O)C(O)C(O)C1O (centres unmarked) [Compound 52a]

- inhibition at 10 µM (SGLT2): -3.1%
Structure (SMILES): O=C(CCc1ccc(O)cc1)c1c(O)cc(O)c(C2OC(CO)C(O)C(O)C2O)c1O [Compound 17b, phloretin-3′-C-β-D-galactoside]

From article PMC7558026, “Exploring and applying the substrate promiscuity of a C-glycosyltransferase in the chemo-enzymatic synthesis of bioactive C-glycosides” (Nature Communications, 2020)
